pIC50: −log10 of the molar value. Like-named read-outs stand apart in the source and are kept apart here.

For data set [1], the target named is Cdk5/p25 (Homo sapiens, UniProt Q00535). The data set is described as follows: Cyclin-Dependent Kinase 5 (cdk5) Assay. The class given is biochemical. The procedure:
Cyclin-Dependent Kinase 5 (cdk5) Assay
Enzyme assays for IC50 determinations and kinetic evaluation were performed in 96-well filter plates (Millipore MAPH NOB 10). […] All components except histone and ATP were added to wells, and the plate was placed on a shaker for 5 minutes. The reaction was started by adding histone and [^32P]ATP, and the plate was shaken at 30° C. for 45 minutes. The reaction was terminated by addition of 0.1 mL of 150 mM phosphoric acid. The plate was kept at 4° C. for 30 minutes to allow substrate to precipitate. The wells were then washed three times with 0.2 mL of 75 mM phosphoric acid and ^32P incorporation was determined with a beta plate counter (Wallac Inc, Gaithersburg, Md.).

For data set [2], the target named is cdk4/D (Homo sapiens, UniProt P11802). The data set is described as follows: Cyclin-Dependent Kinase 4 (cdk4) Assay. The class given is biochemical.
Sequence of cdk4/D (P11802 whole entry): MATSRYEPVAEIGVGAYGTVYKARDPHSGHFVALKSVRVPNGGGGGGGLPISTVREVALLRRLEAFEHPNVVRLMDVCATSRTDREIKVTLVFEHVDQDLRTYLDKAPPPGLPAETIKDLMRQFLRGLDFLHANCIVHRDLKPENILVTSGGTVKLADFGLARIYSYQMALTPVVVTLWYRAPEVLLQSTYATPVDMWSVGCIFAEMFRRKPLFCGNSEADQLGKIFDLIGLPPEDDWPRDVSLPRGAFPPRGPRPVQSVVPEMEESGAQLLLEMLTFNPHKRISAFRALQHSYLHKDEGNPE
Sequence of cdk4/D (P24385 whole entry, further chain): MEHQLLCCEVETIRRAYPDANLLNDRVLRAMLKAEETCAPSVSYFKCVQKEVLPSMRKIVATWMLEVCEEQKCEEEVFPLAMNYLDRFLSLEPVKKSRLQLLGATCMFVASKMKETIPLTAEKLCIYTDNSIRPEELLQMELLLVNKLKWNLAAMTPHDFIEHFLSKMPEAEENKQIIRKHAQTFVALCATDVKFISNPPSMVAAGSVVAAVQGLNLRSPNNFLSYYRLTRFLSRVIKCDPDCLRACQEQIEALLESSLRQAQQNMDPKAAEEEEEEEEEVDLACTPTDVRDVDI
In data set [3] the target is cdk2/cyclinA (Homo sapiens, UniProt P24941). The data set is described as follows: Cyclin-Dependent Kinase Assay cdk2/cyclinA.
For data set [4], the target named is cdc2/cyclinB (Homo sapiens, UniProt P06493). The data set is described as follows: Cyclin-Dependent Kinase Assay cdc2/cyclinB.
Sequence of cdc2/cyclinB (P06493 whole entry): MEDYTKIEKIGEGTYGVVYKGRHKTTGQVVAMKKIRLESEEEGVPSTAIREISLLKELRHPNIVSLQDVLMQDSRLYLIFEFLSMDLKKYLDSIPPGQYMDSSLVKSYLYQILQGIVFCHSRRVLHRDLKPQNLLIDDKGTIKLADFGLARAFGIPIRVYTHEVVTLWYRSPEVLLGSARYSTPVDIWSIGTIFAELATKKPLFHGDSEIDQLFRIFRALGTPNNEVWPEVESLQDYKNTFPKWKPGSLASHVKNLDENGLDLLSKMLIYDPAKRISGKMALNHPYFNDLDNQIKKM
Sequence of cdc2/cyclinB (P14635 whole entry, further chain): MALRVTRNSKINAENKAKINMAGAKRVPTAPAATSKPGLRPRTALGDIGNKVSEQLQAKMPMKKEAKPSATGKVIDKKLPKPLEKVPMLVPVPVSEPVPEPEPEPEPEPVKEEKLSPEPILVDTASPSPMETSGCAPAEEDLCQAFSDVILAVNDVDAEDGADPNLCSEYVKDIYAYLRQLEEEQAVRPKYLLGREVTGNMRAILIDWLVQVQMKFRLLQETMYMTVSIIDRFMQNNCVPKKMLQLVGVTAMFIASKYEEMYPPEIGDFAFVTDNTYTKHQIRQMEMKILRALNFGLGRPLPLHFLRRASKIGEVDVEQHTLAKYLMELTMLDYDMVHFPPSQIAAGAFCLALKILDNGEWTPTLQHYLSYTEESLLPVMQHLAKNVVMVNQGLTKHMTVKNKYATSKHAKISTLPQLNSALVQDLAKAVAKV
The target in data set [5] is cdk2/cyclinE (Homo sapiens, UniProt P24941). The data set is described as follows: Cyclin-Dependent Kinase Assay cdk2/cyclinE.

A word on the melting point: it is the temperature of the solid-liquid transition. `O=c1ccc2cnc(Nc3ccc(N4CCCCC4)cc3)nc2n1[C@@H]1C[C@H]2CC[C@@H]1C2` (relative stereo) [Example 181, 8-Bicyclo[2.2.1]hept-2-yl-2-(4-piperidin-1-yl-phenylamino)-8H-pyrido[2,3-d]pyrimidin-7-one] registered a melting point of 243 to 244 °C. This molecule also showed a pIC50 in data set [1] (Table 1) of 6.23. Also, the pIC50 in data set [2] (Table 1, read-out: cdk4/D IC50) is 7.24. Besides, the pIC50 in data set [3] (cdk2/A IC50, Table 1) was 6.71. Besides, the pIC50 in data set [4] was 4.48.
Turning to `CCN(CC)CCOc1ccc(Nc2ncc3ccc(=O)n(C4CCCCC4)c3n2)cc1` [Example 132, 8-Cyclohexyl-2-[4-(2-diethylamino-ethoxy)-phenylamino]-8H-pyrido[2,3-d]pyrimidin-7-one], the melting point lay in the range of 135 to 137 °C. Besides, in data set [1] (Table 1), the pIC50 was 7.59. For the same molecule, in data set [2] (Table 1, read-out: cdk4/D IC50), the pIC50 is 7.98. In data set [3] (cdk2/A IC50, Table 1), the pIC50 is 7.22. The molecule further showed a pIC50 in data set [5] (cdk2/E IC50, Table 1) of 7.04. The pIC50 in data set [4] was 6.43.
`CN1CCN(c2ccc(Nc3ncc4ccc(=O)n(C5CCCCC5)c4n3)cc2)CC1` [Example 133, 8-Cyclohexyl-2-[4-(4-methyl-piperazin-1-yl)-phenylamino]-8H-pyrido[2,3-d]pyrimidin-7-one] had a melting point of 205 to 207 °C. In data set [1] (Table 1), this molecule showed a pIC50 of 8.16. The pIC50 in data set [2] (Table 1, read-out: cdk4/D IC50) was 8.35. The pIC50 in data set [3] (cdk2/A IC50, Table 1) is 7.82. In data set [5] (cdk2/E IC50, Table 1), this molecule had a pIC50 of 7.71. Besides, the pIC50 in data set [4] is 7.11.
In turn, `CN(C)c1ccc(Nc2ncc3ccc(=O)n(CCCOCc4ccccc4)c3n2)cc1` [Example 138, 8-(3-Benzyloxy-propyl)-2-(4-dimethylamino-phenylamino)-8H-pyrido[2,3-d]pyrimidin-7-one] yielded a melting point of 144 to 146 °C. The molecule also showed a pIC50 in data set [1] (Table 1) of 6.55. In data set [2] (Table 1, read-out: cdk4/D IC50), the pIC50 was 6.29. Also, the pIC50 in data set [3] (cdk2/A IC50, Table 1) was 6.66. The molecule further gave a pIC50 in data set [5] (cdk2/E IC50, Table 1) of 5.58. The pIC50 in data set [4] is 5.48.
Regarding `CC1CN(c2ccc(Nc3ncc4ccc(=O)n(C5CCCCC5)c4n3)cc2)CC(C)N1` (stereo not drawn) [Example 145, 8-Cyclohexyl-2-14-(3,5-dimethyl-piperazin-1-yl)-phenylamino-8H-pyrido[2,3-d]pyrimidin-7-one], the melting point is 237 to 239 °C. For the same molecule, the pIC50 in data set [1] (Table 1) is 7.76. For the same molecule, the pIC50 in data set [2] (Table 1, read-out: cdk4/D IC50) was 8.35. The molecule also had a pIC50 in data set [3] (cdk2/A IC50, Table 1) of 7.49. Besides, in data set [5] (cdk2/E IC50, Table 1), the pIC50 is 7.34. For the same molecule, the pIC50 in data set [4] is 6.84.
`CC1CCN(c2ccc(Nc3ncc4ccc(=O)n(C5CCCCC5)c4n3)cc2)CC1` [Example 159, 8-Cyclohexyl-2-[4-(4-methyl-piperidin-1-yl)-phenylamino]-8H-pyrido[2,3-d]pyrimidin-7-one]: the melting point was 208 to 209 °C. Also, the pIC50 in data set [1] (Table 1) was 8.16. In addition, the pIC50 in data set [2] (Table 1, read-out: cdk4/D IC50) was 8.35. In addition, the pIC50 in data set [3] (cdk2/A IC50, Table 1) was 7.82. Further, the pIC50 in data set [5] (cdk2/E IC50, Table 1) is 7.71. The pIC50 in data set [4] is 7.11.
Consider `O=c1ccc2cnc(Nc3ccc(N4CCCC4)cc3)nc2n1C1CCCCC1` [Example 160, 8-Cyclohexyl-2-(4-pyrrolidin-1-yl-phenylamino)-8H1-pyrido[2,3-d]pyrimidin-7-one], for which the melting point lay within 199 to 200 °C. This molecule also gave a pIC50 in data set [1] (Table 1) of 6.95. Moreover, the pIC50 in data set [2] (Table 1, read-out: cdk4/D IC50) was 6.76. The molecule further had a pIC50 in data set [3] (cdk2/A IC50, Table 1) of 7.21. This molecule had a pIC50 in data set [4] of 6.60.
Consider `O=c1ccc2cnc(Nc3ccc(-n4cccc4)cc3)nc2n1C1CCCCC1` [Example 161, 8-Cyclohexyl-2-(4-pyrrole-1-yl-phenylamino)-811-pyrido[2,3-d]pyrimidin-7-one], for which the melting point lay in the range of 183 to 184 °C. In addition, the pIC50 in data set [1] (Table 1) was 7.37. The pIC50 in data set [2] (Table 1, read-out: cdk4/D IC50) is 6.56. Moreover, in data set [3] (cdk2/A IC50, Table 1), the pIC50 was 6.98. The pIC50 in data set [5] (cdk2/E IC50, Table 1) is 6.26. Moreover, in data set [4], the pIC50 is 6.35.
Turning to `O=c1ccc2cnc(Nc3ccc(-n4cccn4)cc3)nc2n1C1CCCCC1` [Example 162, 8-Cyclohexyl-2-(4-pyrazol-1-yl-phenylamino)-8H-pyrido[2,3-d]pyrimidin-7-one], the melting point lay in the range of 241 to 242 °C. In addition, in data set [1] (Table 1), the pIC50 is 7.37. Also, the pIC50 in data set [2] (Table 1, read-out: cdk4/D IC50) was 7.05. In data set [3] (cdk2/A IC50, Table 1), this molecule showed a pIC50 of 7.45. The pIC50 in data set [5] (cdk2/E IC50, Table 1) was 7.06. This molecule also gave a pIC50 in data set [4] of 6.57.
`CC1CC(C)CN(c2ccc(Nc3ncc4ccc(=O)n(C5CCCCC5)c4n3)cc2)C1` (stereo not drawn) [Example 167]: the melting point was in the range of 238 to 240 °C. For the same molecule, the pIC50 in data set [1] (Table 1) was 5.57. Moreover, the pIC50 in data set [2] (Table 1, read-out: cdk4/D IC50) was 6.37. Further, the pIC50 in data set [3] (cdk2/A IC50, Table 1) is 6.57. Also, the pIC50 in data set [4] is 5.05.
For `O=c1ccc2cnc(Nc3ccc(N4CCc5ccccc5C4)cc3)nc2n1C1CCCCC1` [Example 171, 8-Cyclohexyl-2-[4-(3,4-dihydro-1H-isoquinolin-2-yl)-phenylamino]-8H-pyrido[2,3-d]pyrimidin-7-one], the melting point came out at 185 °C. Besides, the pIC50 in data set [1] (Table 1) is 6.38. Further, the pIC50 in data set [3] (cdk2/A IC50, Table 1) was 6.91. In addition, the pIC50 in data set [5] (cdk2/E IC50, Table 1) is 6.49. For the same molecule, in data set [4], the pIC50 is 5.92.
In turn, `CC1CCCN(c2ccc(Nc3ncc4ccc(=O)n(C5CCCCC5)c4n3)cc2)C1` (stereo not drawn) [Example 175, 8-Cyclohexyl-2-[4-(3-methyl-piperidin-1-yl)-phenylamino]-8H-pyrido[2,3-d]pyrimidin-7-one] returned a melting point of 189 to 190 °C. In data set [1] (Table 1), the pIC50 was 6.16. Besides, the pIC50 in data set [2] (Table 1, read-out: cdk4/D IC50) is 6.57. This molecule also showed a pIC50 in data set [3] (cdk2/A IC50, Table 1) of 6.15. Further, the pIC50 in data set [5] (cdk2/E IC50, Table 1) was 6.36.
For `O=c1ccc2cnc(Nc3ccc(N4CCCCC4)cc3)nc2n1C1CCOCC1` [Example 211, 2-(4-Piperidin-1-yl-phenylamino)-8-(tetrahydro-pyran-4-yl)-8H-pyrido[2,3-d]pyrimidin-7-one], in that order: 254 to 255 °C, 6.47, 6.82, 6.24 and 5.12.
`O=c1ccc2cnc(Nc3ccc(F)cc3)nc2n1C1CC2CCC1C2` (stereo not drawn) [Example 212, 8-Bicyclo[2.2.1]hept-2-yl-2-(4-fluoro-phenylamino)-8H-pyrido[2,3-d]pyrimidin-7-one]: the melting point was 219 to 220 °C. Also, the pIC50 in data set [1] (Table 1) is 8.00. Besides, the pIC50 in data set [2] (Table 1, read-out: cdk4/D IC50) is 7.53. The pIC50 in data set [3] (cdk2/A IC50, Table 1) is 7.80. The molecule further showed a pIC50 in data set [5] (cdk2/E IC50, Table 1) of 7.85. In data set [4], this molecule had a pIC50 of 6.72.
Take `O=c1ccc2cnc(Nc3ccc(N4CCC(CCCO)CC4)cc3)nc2n1C1CC2CCC1C2` (stereo not drawn) [Example 214, 8-Bicyclo[2.2.1]hept-2-yl-2-{4-[4-(3-hydroxy-propyl)-piperidin-1-yl]-phenylamino}-8H-pyrido[2,3-d]pyrimidin-7-one]: the melting point is 223 °C. For the same molecule, the pIC50 in data set [1] (Table 1) was 5.48. Besides, the pIC50 in data set [2] (Table 1, read-out: cdk4/D IC50) is 8.10. For the same molecule, the pIC50 in data set [3] (cdk2/A IC50, Table 1) is 6.69. In addition, the pIC50 in data set [5] (cdk2/E IC50, Table 1) is 6.90.
`CCN(CC)CCOc1ccc(Nc2ncc3ccc(=O)n(C4CC5CCC4C5)c3n2)cc1` (stereo not drawn) [Example 224, 8-Bicyclo[2.2.1]hept-2-yl-2-[4-(2-diethylamino-ethoxy)-phenylamino]-8H-pyrido[2,3-d]pyrimidin-7-one] displayed a melting point of 133 to 134 °C. The pIC50 in data set [1] (Table 1) was 7.27. In data set [3] (cdk2/A IC50, Table 1), this molecule showed a pIC50 of 7.09. For the same molecule, the pIC50 in data set [5] (cdk2/E IC50, Table 1) is 7.12. The molecule also showed a pIC50 in data set [4] of 6.70.
`O=c1ccc2cnc(Nc3ccc(N4CCC(CCCN5CCOCC5)CC4)cc3)nc2n1C1CC2CCC1C2` (stereo not drawn) [Example 235, 8-Bicyclo[2.2.1]hept-2-yl-2-{4-[4-(3-morpholin-4-yl-propyl)-piperidin-1-yl]-phenylamino}-8H-pyrido[2,3-d]pyrimidin-7-one] registered a melting point of 197 to 198 °C. In data set [1] (Table 1), this molecule had a pIC50 of 5.84. Moreover, the pIC50 in data set [2] (Table 1, read-out: cdk4/D IC50) was 7.43. Also, the pIC50 in data set [3] (cdk2/A IC50, Table 1) was 7.02. The pIC50 in data set [4] is 5.77.
For `O=c1ccc2cnc(Nc3ccc(N4CCCC(CCCO)C4)cc3)nc2n1C1CC2CCC1C2` (stereo not drawn) [Example 236, 8-Bicyclo[2.2.1]hept-2-yl-2-{4-[3-(3-hydroxy-propy)-piperidin-1-yl]-phenylamino}-8H-pyrido[2,3-d]pyrimidin-7-one], in that order: 150 to 151 °C, 6.40, 8.16, 7.87 and 6.17.
The molecule `CC(C)n1c(=O)ccc2cnc(Nc3cccc([N+](=O)[O-])c3)nc21` [Example 623, 8-Isopropyl-2-(3-nitro-phenylamino)-8H-pyrido[2,3-d]pyrimidin-7-one] gave a melting point of 202 to 203 °C. In addition, in data set [1] (Table 3), the pIC50 was 7.68. In addition, the pIC50 in data set [2] (Table 3, read-out: Cdk4 IC50) was 5.20. Also, the pIC50 in data set [3] (Cdk2/A IC50, Table 3) is 6.53. Moreover, in data set [5] (Cdk2/E IC50, Table 3), the pIC50 was 6.12.
Take `CC(C)n1c(=O)ccc2cnc(Nc3ccc(O)cc3)nc21` [Example 624, 8-Isopropyl-2-(4-hydroxy-phenylamino)-8H-pyrido[2,3-]pyrimidin-7-one]: the melting point is more than 220 °C. The molecule further gave a pIC50 in data set [1] (Table 3) of 7.82. In data set [2] (Table 3, read-out: Cdk4 IC50), the pIC50 was 6.59. In data set [3] (Cdk2/A IC50, Table 3), this molecule showed a pIC50 of 7.21. Further, in data set [5] (Cdk2/E IC50, Table 3), the pIC50 is 6.66.

Values taken from patent US20040224958A1, “Pyridopyrimidinone derivatives for treatment of neurodegenerative disease” (priority 2000, published 2004).
